Reference: patent US5922755A, “Immunomodulator, cell adhesion inhibtor, and agent for treating, and preventing autoimmune diseases” (Toyama Chemical Co., Ltd., priority 1993, dated 1999)

Key:
[1] = system: delayed-type hypersensitivity; assay: Delayed-type hypersensitivity potentiated in mice by cyclophosphamide pretreatment (SRBC-induced paw edema); format: in vivo, BALB/c male mice; conditions: Mus musculus, po, 120 h, read-out: Delayed-type paw edema inhibitions; for inhibition in vivo at 100 mg/kg: 100 mg/kg p.o. once a day for 5 days; for inhibition in vivo at 10 mg/kg: 10 mg/kg p.o. once a day for 5 days; for inhibition in vivo at 30 mg/kg: 30 mg/kg p.o. once a day for 5 days
Experimental: The effect of the test compounds on the delayed-type hypersensitivity. Delayed-type hypersensitivity in potentiated in mice by pretreatment with cyclophosphamide was carried out in accordance with the method of P. H. Lagrange et al., Journal of Experimental Medicine, Vol.139, pp.1529-1539(1974). In brief, BALB/c male mice (8 weeks old, 6 to 8 mice per group) were pretreated with intraperitoneal injection of 75 mg/kg cyclophosphamide. Four days after the injection, 0.2 ml SRBC (sheep red blood cells) suspension (5×10^7 cells/ml) was intravenously sensitized. Three days after the sensitization; delayed-type hypersensitive responses were induced with intradermally injection of 0.05 ml SRBC suspension (8×10^9 cells/ml) to the left hind paw. After 24 hours, the mice were killed and both hind paws were cut off at the ankle to determine the weight of the paw. The SRBC-induced edema was measured as the difference between the left and right paw weights. The inhibitory percentage in paw edema produced by the compound treatment was expressed relative to the edema from the control mice. The test compounds were suspended in 0.5% carboxymethylcellulose (CMC) solution and were administered p.o. once a day for 5 days from 2 days prior to the sensitization. 0.5 % CMC solution instead of the test compounds was administered to the control mice.

[2] = system: experimental allergic encepharomyelitis (EAE); assay: Experimental allergic encepharomyelitis (EAE); format: in vivo, Lewis female rats; conditions: Rattus norvegicus, po, 432 h, day 0 to 13, cumulative score for 18 days, rats, read-out: Inhibition of clinical score; for inhibition in vivo at 100 mg/kg: 100 mg/kg p.o. once a day; for inhibition in vivo at 30 mg/kg: 30 mg/kg p.o. once a day
Experimental: Effect of the test compounds on experimental allergic encep-haromyelitis. Experimental allergic encepharomyelitis (EAE) is a prototype for cell-mediated autoimmune diseases, and has been widely used as an animal model of multiple sclerosis. According to the method described by Deguchi et al., Brain and Nerve, Vol.42, pp.391-397(1990), EAE was induced by using Lewis female rats (5 rats per group). […] 0.5 % CMC solution instead of the test compound was administered to the control rats. The cumulative score of the symptoms for 18 days was obtained and the inhibitory percentage in the cumulative score produced by the test compound group was expressed relative to the cumulative score from the control group.

[3] = system: hemolytic plaque forming cell (PFC) response; assay: Hemolytic plaque forming cell (PFC) response, SRBC sensitization; format: in vivo, BDF1 male mice; conditions: for PFC No./spleen: mean ± S.E.
[4] = system: very late antigen-4 (VLA-4); assay: Expression of VLA-4 on lymphocytes from EAE rats (flow cytometry); format: in vivo, rat; conditions: 100 mg/kg, ten days after immunization, control 29.9
Experimental: Effect of the compounds on the expression of cell adhesion molecule (very late antigen-4:VLA-4) in EAE rats.
VLA-4 is one of the cell adhesion molecules which may be involved in the migration of lymphocytes. The effect of the compounds on the expression of VLA-4 on lymphocytes from EAE rats was examined. […] The leukocyte fraction was isolated from 5ml of the blood by density gradient centrifugation. 5×10^5of the leukocytes were suspended in 0.5 ml of phosphate buffered saline (PBS) containing 0.1 % bovine serum albumin and then reacted with 5 μl of mouse anti-rat VLA-4 antibo dy. After incubation at 4° C. for 1 hour, the cells were reacted with fluorescence isothiocyanate-conjugated sheep anti-mouse immunoglobulin for a further 30 min. The cells were washed with PBS and were analyzed on flow cytometry. The lymphocyte population was isolated to construct on based a forward and 90° light scatter. The results were expressed as a percentage of VLA-4 positive cell number to the lymphocyte number.

[5] = system: CD11b; assay: Enhanced expression of CD11b in HL-60 cells stimulated by PMA (flow cytometry); format: cell-based, human; conditions: 10 μg/ml; HL-60, 24 hours; mean ± S.E., 6 measurements; control 82.2 ± 4.9
Experimental: Effect of the test compounds on the enhanced expression of cell adhesion molecule CD11b in HL-60 (human promyelocytic leukemia cell line)stimulatedby phorbol myristate acetate (PMA).
CD11b is the α-chain of cell adhesion molucule Mac-1, which is expressed in the activation of monocytes. The effect of the test compounds on the expression of CD11b on monocytes, HL-60 cells was analyzed. In brief, 5×10^6 HL-60 cells were suspended in 2 ml of RPMI-1640 containing 10% fetal calf serum (FCS) in each well of a 12-well multiplate, and then PMA ([…] final concentration) and the test compound were added to themedium. After incubation at 37° C. for 24 hours in an atmosphere containig 5% CO2, the cells were collected and was hed with PBS. 3×10^3 HL-60 cells were resuspended in 300 μl PBS(containing 1% FCS) and incubated with 5 μl of phycoerythrin-conjugated mouse anti-human CD11b antibody. After 1 hour incubation at 4° C., the cells were washed with PBS. The cells were analyzed on flow cytometry, and the results were expressed as the enhanced percentage of CD11b positive cells in the treated group relative to the PMA-untreated group.

[6] = 2 × 10^6 cells sensitization, 10 mg/kg p.o. for 3 days
[7] = 2 × 10^8 cells sensitization, 10 mg/kg p.o. for 3 days
[8] = 2 × 10^6 cells sensitization, 1 mg/kg p.o. for 3 days
[9] = 2 × 10^6 cells sensitization, 100 mg/kg p.o. for 3 days
[10] = 2 × 10^8 cells sensitization, 1 mg/kg p.o. for 3 days
[11] = 2 × 10^8 cells sensitization, 100 mg/kg p.o. for 3 days

CC(C)(S)[C@@H](N)C(=O)O [D-PENICILLAMINE, D-penicillamine, reference compound]
inhibition in vivo at 100 mg/kg [1]: -3% | inhibition in vivo at 100 mg/kg [2]: -10%

C[C@]12C=CC(=O)C=C1CC[C@@H]1[C@@H]2[C@@H](O)C[C@@]2(C)[C@H]1CC[C@]2(O)C(=O)CO [PREDNISOLONE, prednisolone, reference compound]
inhibition in vivo at 10 mg/kg [1]: 44% | PFC number, percentage of control group [3, 6]: 81 PERCENTAGE | PFC No./spleen [3, 6]: 3.97 ± 0.78 ×10^3 | PFC number, percentage of control group [3, 7]: 7 PERCENTAGE | PFC No./spleen [3, 7]: 17 ± 3 ×10^3

O=C(O)c1cc(/N=N/c2ccc(S(=O)(=O)Nc3ccccn3)cc2)ccc1O [SULFASALAZINE, Sulfasalazine, reference compound]
inhibition in vivo at 100 mg/kg [1]: 5% | inhibition in vivo at 300 mg/kg ([2]; 300 mg/kg p.o. once a day): 1%

CS(=O)(=O)Nc1cc2occ(NC=O)c(=O)c2cc1Oc1ccccc1 [compound No. 1, 3-formylamino-7-methylsulfonylamino-6-phenoxy-4H-1-benzopyran-4-one]
inhibition in vivo at 10 mg/kg [1]: 12% | inhibition in vivo at 30 mg/kg [1]: 27% | inhibition in vivo at 100 mg/kg [1]: 39% | Percentage of VLA-4 positive cell (mean) [4]: 12.0 PERCENTAGE | CD11b increased rate of expression [5]: 49.9 ± 1.8% | inhibition in vivo at 1 mg/kg ([2]; 1 mg/kg p.o. once a day): 21% | inhibition in vivo at 100 mg/kg [2]: 67% | PFC number, percentage of control group [3, 8]: 145 PERCENTAGE | PFC No./spleen [3, 8]: 7.06 ± 1.17 ×10^3 | PFC number, percentage of control group [3, 6]: 146 PERCENTAGE | PFC No./spleen [3, 6]: 7.13 ± 0.52 ×10^3 | PFC number, percentage of control group [3, 9]: 111 PERCENTAGE | PFC No./spleen [3, 9]: 5.40 ± 0.49 ×10^3 | PFC number, percentage of control group [3, 10]: 963 PERCENTAGE | PFC No./spleen [3, 10]: 231 ± 18 ×10^3 | PFC number, percentage of control group [3, 7]: 92 PERCENTAGE | PFC No./spleen [3, 7]: 221 ± 17 ×10^3 | PFC number, percentage of control group [3, 11]: 54 PERCENTAGE | PFC No./spleen [3, 11]: 129 ± 20 ×10^3

CS(=O)(=O)Nc1cc2occc(=O)c2cc1Oc1ccccc1 [compound No. 2, 7-methylsulfonylamino-6-phenoxy-4H-1-benzopyran-4-one]
inhibition in vivo at 100 mg/kg [1]: 17%

CS(=O)(=O)Nc1cc2occc(=O)c2cc1Oc1ccc(F)cc1F [compound No. 3, 6-(2,4-difluorophenoxy)-7-methylsulfonylamino-4H-1-benzopyran-4-one]
inhibition in vivo at 30 mg/kg [1]: 48% | inhibition in vivo at 30 mg/kg [2]: 86%

CS(=O)(=O)Nc1cc2occ(C(N)=O)c(=O)c2cc1Oc1ccccc1 [compound No. 4, 3-carbamoyl-7-methylsulfonylamino-6-phenoxy-4H-1-benzopyran-4-one]
inhibition in vivo at 100 mg/kg [1]: 41% | inhibition in vivo at 30 mg/kg [2]: 50%

Cc1oc2cc(NS(C)(=O)=O)c(Oc3ccccc3)cc2c(=O)c1C(N)=O [compound No. 5, 3-carbamoyl-2-methyl-7-methylsulfonylamino-6-phenoxy-4H-1-benzopyran-4-one]
inhibition in vivo at 100 mg/kg [1]: 16%

CN(C=O)c1coc2cc(NS(C)(=O)=O)c(Oc3ccccc3)cc2c1=O [compound No. 6, 3-(N-formyl-N-methyl)amino-7-methylsulfonylamino-6-phenoxy-4H-1-benzopyran-4-one]
inhibition in vivo at 100 mg/kg [1]: 17% | inhibition in vivo at 30 mg/kg [2]: 66%

CS(=O)(=O)Nc1cc2occ(C(=O)O)c(=O)c2cc1Oc1ccccc1 [compound No. 7, 3-carboxy-7-methylsulfonylamino-6-phenoxy-4H-1-benzopyran-4-one]
inhibition in vivo at 100 mg/kg [1]: 16% | inhibition in vivo at 30 mg/kg [2]: 50%

CSc1coc2cc(NS(C)(=O)=O)c(Oc3ccccc3)cc2c1=O [compound No. 8, 3-methylthio-7-methylsulfonyl amino-6-phenoxy-4H-1-benzopyran-4-one]
inhibition in vivo at 100 mg/kg [1]: 21% | inhibition in vivo at 30 mg/kg [2]: 17%

CS(=O)(=O)Nc1cc2occ(NC=O)c(=O)c2cc1Nc1ccc(F)cc1F [compound No. 9, 6-(2,4-difluorophenylamino)-3-formylamino-7-methylsulfonylamino-4H-1-benzopyran-4-one]
inhibition in vivo at 100 mg/kg [1]: 28% | inhibition in vivo at 30 mg/kg [2]: 50%

CS(=O)(=O)Nc1cc2occ(C(N)=O)c(=O)c2cc1Nc1ccc(F)cc1F [compound No. 10, 3-carbamoyl-6-(2,4-difluorophenylamino)-7-methylsulfonylamino-4H-1-benzopyran-4-one]
inhibition in vivo at 100 mg/kg [1]: 20% | inhibition in vivo at 30 mg/kg [2]: 42%

Cc1cc(=O)c2cc(Oc3ccccc3)c(NS(C)(=O)=O)cc2o1 [compound No. 11, 2-methyl-7-methyl sulfonylamino-6-phenoxy-4H-1-benzopyran-4-one]
inhibition in vivo at 30 mg/kg [2]: 52%

CS(=O)(=O)Nc1cc2occ(NC=O)c(=O)c2cc1Nc1ccccc1F [compound No. 12, 6-(2-fluorophenylamino)-3-formylamino-7-methylsulfonylamino-4H-1-benzopyran-4-one]
inhibition in vivo at 30 mg/kg [2]: 67%
